Measurements reported in patent US5409948A (priority 1992, dated 1995).
Entries after “also recorded” stand apart in the source; their conditions may differ.

Assays:
[1] = in vivo
plasma AChE = assay type: in vivo, Fischer-344 rats
[2] = target: human acetylcholinesterase (AChE); details: read-out: IC50 against human AChE; cited from earlier work
[3] = tested on: human acetylcholinesterase (AChE); assay type: biochemical
[4] = rat, in vivo
[5] = tested on: scopolamine-induced impairment in learning performance of rats; parameters: species or system male Fischer-344 rats; details: rat, in vivo
[6] = target: human butyrylcholinesterase (BChE); details: read-out: IC50 against human BChE; cited from earlier work
cholinesterase (ChE) = details: cited from earlier work
neuromuscular AChR = details: cited from earlier work
[7] = in vivo; cited from earlier work
[8] = tested on: patients with Alzheimer's disease; details: human, in vivo; cited from earlier work
[9] = tested on: brain and plasma AChE and BChE; details: cited from earlier work
[10] = tested on: performance deficits induced by scopolamine; details: in vivo; cited from earlier work
[11] = tested on: memory consolidation in mice; details: mouse, in vivo; cited from earlier work
[12] = tested on: scopolamine-induced impairment in learning performance of rats; details: rat, in vivo; cited from earlier work
acetylcholine in brain = details: in vivo; cited from earlier work
cholinesterase = details: cited from earlier work

CN1CC[C@@]2(C)c3cc(OC(=O)Nc4ccccc4)ccc3N(C)[C@@H]12 [phenserine, (-)-N-phenylcarbamoyl eseroline]
LD50 (in words) [1]: substantially higher than that of physostigmine itself
central tremor [1]: a slight central tremor is evident
toxicity or deaths [1]: have not been associated with toxicity or deaths
AChE inhibition at 8 hours (plasma AChE; at 8 hours): 43.0%
AChE inhibition and its duration, in words (plasma AChE; rat, in vivo): long, steady state inhibition of AChE at very low and non-toxic doses
AChE inhibition compared to physostigmine (plasma AChE; rat, in vivo): dramatically higher inhibition of AChE at a lower dose
duration of high and relatively constant AChE inhibition (plasma AChE; rat, in vivo): more than 8 hours
maximum AChE inhibition (plasma AChE; rat, in vivo): 73.5%
IC50 [2]: 24 ± 6 nM
selectivity of anticholinesterase action (AChE vs BChE) [3]: high selectivity of anticholinesterase action
activity of animals [4]: seemed less active than at other doses
behavior of animals [4]: very aggressive and difficult to handle
peripheral cholinergic effects, such as salivation and diarrhea [4]: not noticed at any doses tested
side effects [4]: chewing, grooming, and wet dog shakes
toxic side effects without peripheral cholinergic inhibitors [4]: large doses can be administered without toxic side effects
SCOP-induced learning impairment [5]: significantly attenuated the SCOP-induced learning impairment
alternation error ratio [5]: only 10.0 and 1.5 mg/kg doses of phenserine improved alternation error performance at blocks 4 and 5 and block 5, respectively; also recorded: only the 10.0 and 1.5 mg/kg doses of phenserine reduced the ratio significantly at blocks 4 and 5 and block 5, respectively
error performance [5]: all but the 7.5 mg/kg dose of phenserine significantly ameliorated error performance
error performance at blocks 4 and 5 [5]: improved error performance at maze training blocks 4 and 5 except the 7.5 mg/kg dose
number of errors at block 4 [5]: reduced significantly at block 4 by all but the 7.5 mg/kg dose
runtime [5]: all but the 7.5 mg/kg dose of phenserine significantly ameliorated error performance, runtime
shock duration [5]: all but the 7.5 mg/kg dose of phenserine significantly ameliorated error performance, runtime, shock frequency and shock duration
shock frequency [5]: all but the 7.5 mg/kg dose of phenserine significantly ameliorated error performance, runtime, shock frequency
therapeutic window [5]: wide therapeutic window
time after i.p. administration at which improvement of learning performance was observed ([5]; ip): more than 1 hour
IC50 [6]: 1300 ± 8.5 nM

CNC(=O)Oc1ccc2c(c1)[C@@]1(C)CCN(C)[C@H]1N2C [(+)-physostigmine]
inhibition of cholinesterase (cholinesterase (ChE)): negligible inhibition; also recorded: negligible ChE inhibitory activity

CN1[C@@H]2C[C@@H](OC(=O)[C@H](CO)c3ccccc3)C[C@H]1[C@@H]1O[C@@H]12 [SCOP, reference compound]
all five measures of the maze task [5]: significantly worse performance in all five measures of the maze task

CNC(=O)Oc1ccc2c(c1)[C@]1(C)CCN(C)[C@@H]1N2C [Physostigmine]
properties at the neuromuscular AChR (neuromuscular AChR): blocking properties as well as agonist properties
AChE inhibition at 60 minutes (plasma AChE; rat, in vivo): negligible
AChE inhibition, immediate (plasma AChE; rat, in vivo): approximately 50%
LD50 [7]: 0.6 mg/kg
pharmacological half life in patients [8]: short pharmacological half life
IC50 of brain vs plasma AChE and BChE [9]: similar
activity in 14-unit T-maze model, in words [5]: no significant activity in this model

CCCCCCCNC(=O)Oc1ccc2c(c1)[C@]1(C)CCN(C)[C@@H]1N2C [heptyl-Phy]
performance deficits induced by scopolamine [10]: reverses the performance deficits induced by scopolamine
memory consolidation [11]: facilitates memory consolidation in mice
alternation error performance [12]: lack of improvement
learning impairment of SCOP-treated rats [12]: failed to ameliorate the learning impairment
number of errors [12]: significantly reduced the number of errors
scopolamine-induced learning impairment of rats [12]: attenuated the scopolamine-induced learning impairment
increases in acetylcholine in brain vs parent compound (acetylcholine in brain): more persistent increases in acetylcholine in brain
toxicity vs parent compound [7]: less toxicity than the parent compound
activity in 14-unit T-maze model, in words [5]: inferior to phenserine
mean errors per trial at each block of three trials [5]: reduced error performance compared to the SCOP group
mean errors per trial for 15 trials [5]: significantly (P<0.05) better performance than the SCOP group
ratio of alternation errors per trial to opportunities [5]: no significant effect
inhibitory action on cholinesterase vs parent compound (cholinesterase): longer inhibitory action on cholinesterase

Nc1c2c(nc3ccccc13)CCCC2 [THA, tetrahydroaminoacridine]
toxicity in Alzheimer's patients [8]: causes toxicity
